Experimental data reported in patent US20220081435A1, “ANDROGEN RECEPTOR PROTEIN DEGRADERS” (THE REGENTS OF THE UNIVERSITY OF MICHIGAN, priority 2019, published 2022).

Molecular target: T1, AR protein (Homo sapiens, UniProt P10275, T878A)
T1 construct: The percent AR protein degradation induced by these compounds at various concentrations in LNCaP cells; host or cells: LNCaP
T1 sequence (P10275 1-920 T878A): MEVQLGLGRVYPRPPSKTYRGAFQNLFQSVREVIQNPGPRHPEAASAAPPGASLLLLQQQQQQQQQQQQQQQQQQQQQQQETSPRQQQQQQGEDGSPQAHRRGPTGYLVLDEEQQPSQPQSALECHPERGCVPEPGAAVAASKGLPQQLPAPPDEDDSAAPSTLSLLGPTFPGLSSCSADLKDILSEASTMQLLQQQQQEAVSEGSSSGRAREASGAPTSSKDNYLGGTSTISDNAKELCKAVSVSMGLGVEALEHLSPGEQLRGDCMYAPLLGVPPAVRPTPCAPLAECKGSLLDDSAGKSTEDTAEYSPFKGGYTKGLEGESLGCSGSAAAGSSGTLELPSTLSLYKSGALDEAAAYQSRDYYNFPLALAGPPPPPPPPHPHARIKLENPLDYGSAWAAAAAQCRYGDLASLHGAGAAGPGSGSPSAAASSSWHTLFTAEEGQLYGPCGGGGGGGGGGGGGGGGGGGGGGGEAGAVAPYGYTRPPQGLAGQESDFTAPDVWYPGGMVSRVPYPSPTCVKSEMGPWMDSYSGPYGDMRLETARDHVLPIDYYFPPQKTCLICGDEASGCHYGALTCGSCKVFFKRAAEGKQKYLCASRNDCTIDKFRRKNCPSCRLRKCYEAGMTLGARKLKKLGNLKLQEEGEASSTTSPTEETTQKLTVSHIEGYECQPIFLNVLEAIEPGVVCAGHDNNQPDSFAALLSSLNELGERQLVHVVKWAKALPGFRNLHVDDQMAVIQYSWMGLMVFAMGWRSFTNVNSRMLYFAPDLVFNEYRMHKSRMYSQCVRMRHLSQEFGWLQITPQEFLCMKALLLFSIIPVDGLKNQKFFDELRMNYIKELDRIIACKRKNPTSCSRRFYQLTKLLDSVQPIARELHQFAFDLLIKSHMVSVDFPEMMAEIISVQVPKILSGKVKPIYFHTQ
Assay: AR protein degradation in LNCaP cells (Western blotting)
Format: cell-based
Conditions: LNCaP, treatment time 6 h, average of three independent experiments; for Dmax at 0.1 µM / Dmax at 1 µM / Dmax at 10 µM: read-out: % AR protein degradation in LNCaP Cells
Description: Cell lines and Cell Culture: All the LNCaP, VCaP and 22RV1 cells used were purchased from American Type Culture Collection (ATCC). […] All of the cells were supplemented with 10% fetal bovine serum (Invitrogen) at 37° C. in a humidified 5% CO2 incubator.
Western Blotting. Treated cells were lysed by RIPA buffer supplemented with protease and phosphatase inhibitors. […] Software ImageJ was used to quantify the percentage of AR degradation. The net protein bands and loading controls are calculated by deducting the background from the inverted band value. The final relative quantification values are the ratio of net band to net loading control.

Row | Structure (SMILES) | Dmax at 0.01 µM [%] | Dmax at 0.1 µM [%] | Dmax at 1 µM [%] | Dmax at 10 µM [%]
1 | Cc1ncsc1-c1ccc(CNC(=O)C2C[C@@H](O)CN2C(=O)[C@@H](NC(=O)CCCCCCCCNC(=O)c2ccc(N3C(=S)N(c4ccc(C#N)c(C(F)(F)F)c4)C(=O)C3(C)C)cc2F)C(C)(C)C)cc1 (stereo partly drawn) [Compound 14, (4R)-1-((S)-2-(9-(4-(3-(4-Cyano-3-(trifluoromethyl)phenyl)-5,5-dimethyl-4-oxo-2-thioxoimidazolidin-1-yl)-2-fluorobenzamido)nonanamido)-3,3-dimethylbutanoyl)-4-hydroxy-N-(4-(4-methylthiazol-5-yl)benzyl)pyrrolidine-2-carboxamide] | 15 | 66 | 87 | 
2 | Cc1ncsc1-c1ccc(CNC(=O)C2C[C@@H](O)CN2C(=O)[C@@H](NC(=O)CCCCCCCCCNC(=O)c2ccc(N3C(=S)N(c4ccc(C#N)c(C(F)(F)F)c4)C(=O)C3(C)C)cc2F)C(C)(C)C)cc1 (stereo partly drawn) [Compound 15, (4R)-1-((S)-2-(10-(4-(3-(4-Cyano-3-(trifluoromethyl)phenyl)-5,5-dimethyl-4-oxo-2-thioxoimidazolidin-1-yl)-2-fluorobenzamido)decanamido)-3,3-dimethylbutanoyl)-4-hydroxy-N-(4-(4-methylthiazol-5-yl)benzyl)pyrrolidine-2-carboxamide] | 10 | 48 | 88 | 
3 | Cc1ncsc1-c1ccc(CNC(=O)C2C[C@@H](O)CN2C(=O)[C@@H](NC(=O)CCCCCCCCCCNC(=O)c2ccc(N3C(=S)N(c4ccc(C#N)c(C(F)(F)F)c4)C(=O)C3(C)C)cc2F)C(C)(C)C)cc1 (stereo partly drawn) [Compound 16, (4R)-1-((S)-2-(11-(4-(3-(4-Cyano-3-(trifluoromethyl)phenyl)-5,5-dimethyl-4-oxo-2-thioxoimidazolidin-1-yl)-2-fluorobenzamido)undecanamido)-3,3-dimethylbutanoyl)-4-hydroxy-N-(4-(4-methylthiazol-5-yl)benzyl)pyrrolidine-2-carboxamide] | 11 | 48 | 86 | 
4 | Cc1ncsc1-c1ccc(CNC(=O)C2C[C@@H](O)CN2C(=O)[C@@H](NC(=O)CCCCCCCCCCCNC(=O)c2ccc(N3C(=S)N(c4ccc(C#N)c(C(F)(F)F)c4)C(=O)C3(C)C)cc2F)C(C)(C)C)cc1 (stereo partly drawn) [Compound 17, (4R)-1-((S)-2-(12-(4-(3-(4-Cyano-3-(trifluoromethyl)phenyl)-5,5-dimethyl-4-oxo-2-thioxoimidazolidin-1-yl)-2-fluorobenzamido)dodecanamido)-3,3-dimethylbutanoyl)-4-hydroxy-N-(4-(4-methylthiazol-5-yl)benzyl)pyrrolidine-2-carboxamide] |  | 30 | 69 | 75
5 | Cc1ncsc1-c1ccc(CNC(=O)C2C[C@@H](O)CN2C(=O)[C@@H](NC(=O)CCOCCOCCNC(=O)c2ccc(N3C(=S)N(c4ccc(C#N)c(C(F)(F)F)c4)C(=O)C3(C)C)cc2F)C(C)(C)C)cc1 (stereo partly drawn) [Compound 18, (4R)-1-((S)-13-(tert-Butyl)-1-(4-(3-(4-cyano-3-(trifluoromethyl)phenyl)-5,5-dimethyl-4-oxo-2-thioxoimidazolidin-1-yl)-2-fluorophenyl)-1,11-dioxo-5,8-dioxa-2,12-diazatetradecan-14-oyl)-4-hydroxy-N-(4-(4-methylthiazol-5-yl)benzyl)pyrrolidine-2-carboxamide] |  | 32 | 35 | 40
6 | Cc1ncsc1-c1ccc(CNC(=O)C2C[C@@H](O)CN2C(=O)[C@@H](NC(=O)CCCCCCc2ccc(C#Cc3ccc(N4C(=S)N(c5ccc(C#N)c(C(F)(F)F)c5)C(=O)C4(C)C)cc3)cn2)C(C)(C)C)cc1 (stereo partly drawn) [Compound 19, (4R)-1-((S)-2-(7-(5-((4-(3-(4-Cyano-3-(trifluoromethyl)phenyl)-5,5-dimethyl-4-oxo-2-thioxoimidazolidin-1-yl)phenyl)ethynyl)pyridin-2-yl)heptanamido)-3,3-dimethylbutanoyl)-4-hydroxy-N-(4-(4-methylthiazol-5-yl)benzyl)pyrrolidine-2-carboxamide] | 30 | 63 | 96 | 
7 | Cc1ncsc1-c1ccc(CNC(=O)C2C[C@@H](O)CN2C(=O)[C@@H](NC(=O)CCCN2CCN(c3ccc(C#Cc4ccc(N5C(=S)N(c6ccc(C#N)c(C(F)(F)F)c6)C(=O)C5(C)C)cc4)cn3)CC2)C(C)(C)C)cc1 (stereo partly drawn) [Compound 20, (4R)-1-((S)-2-(4-(4-(5-((4-(3-(4-Cyano-3-(trifluoromethyl)phenyl)-5,5-dimethyl-4-oxo-2-thioxoimidazolidin-1-yl)phenyl)ethynyl)pyridin-2-yl)piperazin-1-yl)butanamido)-3,3-dimethylbutanoyl)-4-hydroxy-N-(4-(4-methylthiazol-5-yl)benzyl)pyrrolidine-2-carboxamide] |  | 50 | 80 | 80
8 | Cc1ncsc1-c1ccc([C@H](C)NC(=O)C2C[C@@H](O)CN2C(=O)[C@@H](NC(=O)CCCN2CCN(c3ccc(C#Cc4ccc(N5C(=S)N(c6ccc(C#N)c(C(F)(F)F)c6)C(=O)C5(C)C)cc4)cn3)CC2)C(C)(C)C)cc1 (stereo partly drawn) [Compound 21, (4R)-1-((S)-2-(4-(4-(5-((4-(3-(4-Cyano-3-(trifluoromethyl)phenyl)-5,5-dimethyl-4-oxo-2-thioxoimidazolidin-1-yl)phenyl)ethynyl)pyridin-2-yl)piperazin-1-yl)butanamido)-3,3-dimethylbutanoyl)-4-hydroxy-N—((S)-1-(4-(4-methylthiazol-5-yl)phenyl)ethyl)pyrrolidine-2-carboxamide] | 37 | 61 | 92 | 
9 | Cc1ncsc1-c1ccc([C@H](C)NC(=O)[C@@H]2C[C@@H](O)CN2C(=O)[C@@H](NC(=O)CCCCN2CCN(c3ccc(C#Cc4ccc(N5C(=S)N(c6ccc(C#N)c(C(F)(F)F)c6)C(=O)C5(C)C)cc4)cn3)CC2)C(C)(C)C)cc1 [Compound 22, (2S,4R)-1-((S)-2-(5-(4-(5-((4-(3-(4-Cyano-3-(trifluoromethyl)phenyl)-5,5-dimethyl-4-oxo-2-thioxoimidazolidin-1-yl)phenyl)ethynyl)pyridin-2-yl)piperazin-1-yl)pentanamido)-3,3-dimethylbutanoyl)-4-hydroxy-N—((S)-1-(4-(4-methylthiazol-5-yl)phenyl)ethyl)pyrrolidine-2-carboxamide] | 28 | 48 | 89 | 
10 | Cc1ncsc1-c1ccc([C@H](C)NC(=O)C2C[C@@H](O)CN2C(=O)[C@@H](NC(=O)CCN2CCN(c3ccc(C#Cc4ccc(N5C(=S)N(c6ccc(C#N)c(C(F)(F)F)c6)C(=O)C5(C)C)cc4)cn3)CC2)C(C)(C)C)cc1 (stereo partly drawn) [Compound 23, (4R)-1-((S)-2-(3-(4-(5-((4-(3-(4-Cyano-3-(trifluoromethyl)phenyl)-5,5-dimethyl-4-oxo-2-thioxoimidazolidin-1-yl)phenyl)ethynyl)pyridin-2-yl)piperazin-1-yl)propanamido)-3,3-dimethylbutanoyl)-4-hydroxy-N—((S)-1-(4-(4-methylthiazol-5-yl)phenyl)ethyl)pyrrolidine-2-carboxamide] | 34 | 51 | 78 | 
11 | Cc1ncsc1-c1ccc([C@H](C)NC(=O)C2C[C@@H](O)CN2C(=O)[C@@H](NC(=O)CN2CCN(c3ccc(C#Cc4ccc(N5C(=S)N(c6ccc(C#N)c(C(F)(F)F)c6)C(=O)C5(C)C)cc4)cn3)CC2)C(C)(C)C)cc1 (stereo partly drawn) [Compound 24, (4R)-1-((S)-2-(2-(4-(5-((4-(3-(4-Cyano-3-(trifluoromethyl)phenyl)-5,5-dimethyl-4-oxo-2-thioxoimidazolidin-1-yl)phenyl)ethynyl)pyridin-2-yl)piperazin-1-yl)acetamido)-3,3-dimethylbutanoyl)-4-hydroxy-N—((S)-1-(4-(4-methylthiazol-5-yl)phenyl)ethyl)pyrrolidine-2-carboxamide] |  | 3 | 31 | 28
